Values of other authors, collected in US20230309840A1, “TARGETING ABNORMAL CELL POPULATIONS FOR APOPTOSIS” (priority 2020, published 2023).

How the values were obtained:
[1] = system: tumor; settings: tumor-bearing mouse model, vs free cisplatin
[2] = system: senescent human fibroblasts; settings: at 100 μM
[3] = system: control cells
[4] = system: cancer cell lines
[5] = system: prostate cancer (Pica) cell
[6] = system: cancer cells; settings: for anti-cancer activity: compared with curcumin
[7] = system: senescent cells
[8] = in vivo
[9] = system: Drosophila melanogaster; settings: in vivo
[10] = system: Caenorhabditis elegans; settings: in vivo
[11] = system: airway inflammation and oxidative stress

In the case of “Tf-cisplatin complex: transferrin (Tf) conjugated cisplatin”, the “toxicity in other tissues” value [1] is listed as “less toxicity in other tissues” and the tumor growth inhibition [1] is listed as “inhibited tumor growth in vivo more effectively than free cisplatin”.

For CC[C@H]1OC(=O)[C@H](C)[C@@H](O[C@H]2C[C@@](C)(OC)[C@@H](O)[C@H](C)O2)[C@H](C)[C@@H](O[C@@H]2O[C@H](C)C[C@H](N(C)C)[C@H]2O)[C@](C)(O)C[C@@H](C)/C(=N\OCOCCOC)[C@H](C)[C@@H](O)[C@]1(C)O [Roxithromycin], the “elimination of senescent cells” value [2] is listed as “selectively eliminated large numbers of senescent cells”.

For CC[C@H]1OC(=O)[C@H](C)[C@@H](O[C@H]2C[C@@](C)(OC)[C@@H](O)[C@H](C)O2)[C@H](C)[C@@H](O[C@@H]2O[C@H](C)C[C@H](N(C)C)[C@H]2O)[C@](C)(O)C[C@@H](C)CN(C)[C@H](C)[C@@H](O)[C@]1(C)O [Azithromycin], the “elimination of senescent cells” value [2] is given as “selectively eliminated large numbers of senescent cells” and the “effect on control cells” value [3] is given as “without affecting control cells”.

In the case of C[C@H]1[C@H](OC(=O)CCC(=O)O)O[C@@H]2O[C@@]3(C)CC[C@H]4[C@H](C)CC[C@@H]1[C@@]24OO3 [Artesunate], the “effect on cancer cell lines” value [4] is given as “cytotoxic effects”.

For CC(C)=CCC/C(C)=C/CC/C(C)=C/CC[C@]1(C)CCc2cc(O)c(C)c(C)c2O1 [γ-Tocotrienols], the “inhibition of cell proliferation and invasion” value [5] is given as “potent and specific inhibitor”.

For O=C1/C(=C/c2ccccc2F)CNC/C1=C\c1ccccc1F [EF24], the anti-cancer activity [6] is given as “more efficacious against various cancer cells”, the “potency in inducing cancer cell death” value ([6]; relative to curcumin) is given as 10 fold and the “killing of senescent cells in combination” value ([7]; combined with Navitoclax) is given as “synergistically kill senescent cells”. The “cell viability of senescent cells” value ([7]; variety of senescent cells) was “selectively decrease the cell viability”.

For COc1ccc(/C=C/C(=O)CC(=O)/C=C/c2ccc(OC)c(OC)c2)cc1OC [DIMC, dimethoxycurcumin], the anti-cancer activity [6] is given as “better anti-cancer activities than curcumin”.

For CC1(C)C=C(CN2C/C(=C\c3ccc(F)cc3)C(=O)/C(=C/c3ccc(F)cc3)C2)C(C)(C)N1O [HO-3867], the anti-cancer activity [6] is given as “better anti-cancer activities than curcumin”.

In the case of COc1cc(/C=C/C(=O)CC(=O)/C=C/c2ccc(O)c(OC)c2)ccc1O [curcumin, Curcumin], the solubility in water is given as “low aqueous solubility”, the bioavailability [8] is given as “poor oral bioavailability” and the “lifespan and health span” value [9] is given as “prolong lifespan and extend health span”. The “lifespan and health span” value [10] was “prolong lifespan and extend health span”.

For [HH] [hydrogen gas, hydrogen], the “number of total cells, eosinophils, and lymphocytes” value ([11]; bronchial alveolar lavage fluid, inhalation) is given as “significantly reduced”, the IL-4 serum level ([11]; following inhalation) is given as “significantly decreased” and the “activity of superoxide dismutase” value ([11]; inhalation) is given as “markedly upregulated”. For the same molecule, the “increased level of malondialdehyde and myeloperoxidase” value ([11]; inhalation) was “significantly attenuated” and the “level of IL-4, IL-13, TNF-α and chemokine (C-X-C motif) ligand 15” value ([11]; inhalation) was “increased the level”.

In the case of O=c1c(O)c(-c2ccc(O)c(O)c2)oc2cc(O)cc(O)c12 [Quercetin], the solubility in water is given as “poorly soluble in water” and the bioavailability [8] is given as “very low”.
